Experiments:
[1] = Serum hPTH(1-34) concentration after repeated intradermal injection (Reference Example 1); assay type: in vivo, rat; conditions: intradermal injection three times at 1 hour intervals, 1 μg/kg or 5 μg/kg per dose
Procedure: Female SD rats (12 weeks old) were ovariectomized and intradermally injected with an aqueous solution of hPTH(1-34) three times at 1 hour intervals at a one time administration dose of 1 μg/kg or 5 μg/kg. Concentration of hPTH(1-34) in serum of the rats was measured by radio immunoassay.

[2] = Serum hPTH(1-34) concentration during transdermal iontophoresis (Example 1); assay type: in vivo, rat; conditions: male SD rats; iontophoresis anode patch 200 μg or 400 μg; 0.1 mA/cm^2, 30 min current and 45 min rest repeated three times; radio immunoassay; FIG. 3
Procedure: Hair on the abdominal skin of male, SD rats (7 weeks old) was shaved off. To the shaved part was attached the iontophoresis apparatus which comprises an anode patch containing 200 μg or 400 μg of hPTH(1-34) and a cathode patch without hPTH(1-34), as mentioned above. The apparatus was connected to an electric generator (50 kHz and 50% duty), and an electric current application using constant transport current (0.1 mA/cm^2) for 30 minutes and a 45-minute rest interval (corresponding to blood concentration of one pulse) was repeated three times. During the repetitions, blood was taken periodically, and concentration of hPTH(1-34) in serum was measured by radio immunoassay.

- maximum blood concentrations vs dose [1]: proportional to the injected doses
- blood concentration profile of hPTH(1-34) in serum ([1]; ovariectomized female SD rats, radio immunoassay, FIG. 1): three sharp pulses
- blood concentration profile of hPTH(1-34) in serum [2]: three sharp peaks
SMILES: CC[C@H](C)[C@H](NC(=O)[C@H](CCC(=O)O)NC(=O)[C@H](CO)NC(=O)[C@@H](NC(=O)[C@@H](N)CO)C(C)C)C(=O)N[C@@H](CCC(N)=O)C(=O)N[C@@H](CC(C)C)C(=O)N[C@@H](CCSC)C(=O)N[C@@H](Cc1cnc[nH]1)C(=O)N[C@@H](CC(N)=O)C(=O)N[C@@H](CC(C)C)C(=O)NCC(=O)N[C@@H](CCCCN)C(=O)N[C@@H](Cc1cnc[nH]1)C(=O)N[C@@H](CC(C)C)C(=O)N[C@@H](CC(N)=O)C(=O)N[C@@H](CO)C(=O)N[C@@H](CCSC)C(=O)N[C@@H](CCC(=O)O)C(=O)N[C@@H](CCCN=C(N)N)C(=O)N[C@H](C(=O)N[C@@H](CCC(=O)O)C(=O)N[C@@H](Cc1c[nH]c2ccccc12)C(=O)N[C@@H](CC(C)C)C(=O)N[C@@H](CCCN=C(N)N)C(=O)N[C@@H](CCCCN)C(=O)N[C@@H](CCCCN)C(=O)N[C@@H](CC(C)C)C(=O)N[C@@H](CCC(N)=O)C(=O)N[C@@H](CC(=O)O)C(=O)N[C@H](C(=O)N[C@@H](Cc1cnc[nH]1)C(=O)N[C@@H](CC(N)=O)C(=O)N[C@@H](Cc1ccccc1)C(=O)O)C(C)C)C(C)C [hPTH(1-34)]
